Each molecule was assayed against HCV proteinase (MBP-NS3″Gly 12-NS4A enzyme) (assay: HCV proteinase inhibition: cleavage of quenched fluorescence substrate NS4A/B.F peptide by MBP-NS3″Gly 12-NS4A enzyme). Conditions: 10 μM NS4A/B.F peptide, pH 8.5, 10% DMSO, room temperature for 60 minutes; IC50 by manual graph analysis.
Type: biochemical
Source text: As mentioned earlier, the compounds of formula I and salts of acidic compounds of formula I with bases are inhibitors of proteases of viral origin.
Construction of Plasmid for the Expression of MBP-NS3″Gly 12-NS4A Enzyme in E. coli
The nucleotide sequence of this expression plasmid is given in SEQ ID NO:1 appended hereto and the amino acid sequence of its expression product is given in SEQ ID NO:2 appended hereto. It is based on the pMAL®-c2 vector supplied by New England Biolabs, Inc. (32 Tozer Rd., Beverly, Mass., USA). The principle of the construction was to create an in-frame fusion of the maltose binding protein (MBP) gene supplied by the pMAL-c2 vector, and sequences of the HCV genome necessary for NS3 proteinase activity. These HCV sequences were inserted between the EcoRI and HindIII sites of the pMAL-c2 polylinker (positions 2695 and 3556 respectively of the sequence given in SEQ ID NO:1).
HCV sequences were derived from plasmids pDS 3348-4045 and pBFK 3348-6062, described by Bartenschlager et al, 1993 (Journal of Virology, 67, 3835-3844). Regions encompassing the NS3 proteinase domain (amino acids 1007-1219) and the NS4A domain (amino acids 1658-1711) were isolated and inserted into the pMAL-c2 vector using standard recombinant DNA techniques, including the PCR amplification of required sequences. Between the NS3 and NS4A domains, a linker region was constructed using synthetic oligonucleotides (positions 3343-3390; amino acids 606-621). The resulting plasmid was used to transform E. coli (strain MC1061) cells and expression of the MBP-NS3″Gly 12-NS4A enzyme was induced as described below.
Protein Expression and Purification
E. coli (strain MC1061) cells transformed with the foregoing plasmid were grown in Luria broth containing ampicillin (100 μg/ml) at 37° C. The cells were grown until an optical density of 0.5 at 600 nm had been reached and enzyme expression was then induced by adding 1 mM isopropylthiogalactoside and incubating at 37° C. for a further 3 hours. The cells were harvested by centrifugation and stored at −80° C.
A pellet from […] bacterial culture was resuspended in E.coli lysis buffer (20 mM Tris HCl, pH 7.5, containing 150 mM NaCl, 1 mM EDTA and 10 mM dithiothreitol) and cell lysis was achieved by two passages through a French Pressure cell. The clear supernatant obtained by centrifugation (18000 g, 30 minutes) was then applied to an amylose resin column (4×1 cm) (New England Biolabs) which had been equilibrated with ice-cold 50 mM Tris HCl, pH 8.5, containing 200 mM NaCl, 1 mM dithiothreitol and 5% glycerol. The column was washed thoroughly with the equilibration buffer and bound protein was eluted using the equilibration buffer containing 10 mM maltose. Fractions of 1 ml were collected, with fractions containing the enzyme being pooled and stored at −80° C. Enzyme concentration was assayed by the method of M. B. Bradford, Analytical Biochemistry, 1976, vol. 72, p.248.
Compounds of formula I (routinely prepared as stock solutions in DMSO) were assayed for their ability to inhibit the cleavage of a quenched fluorescence substrate [NS4A/B.F peptide (N-[4-[4-(dimethylamino)phenylazo]benzoyl]-L-α-aspartyl-L-(α-glutamyl-L-methionyl-L-α-glutamyl-L-α-glutamyl-L-cysteinyl-L-alanyl-L-seryl-L-histidyl-N5-[2-(5-sulpho-1-naphthylamino)ethyl]-L-glutamin-amide); Wilkinson et al, Society for General Microbiology Meeting, University of Warwick, England, Mar. 28, 1996] based on the NS4A/4B cleavage site by enzyme MBP-NS3{acute over (ii)}Gly 12-NS4A in microtitre plates as follows:
The enzyme (0.4-0.6 μg) was added to a mixture (200 μl final volume) containing 50 mM Tris HCl, pH 8.5, with 1 mM NaCl, 0.1 mM EDTA, 1 mM dithiothreitol, 0.1% Triton X-100, 10 μM NS4A/B.F peptide and the test compound of formula I prepared as a stock solution in DMSO and added to give a 10% final concentration of DMSO. […]
“1(RS)-[[N-[N-[N-[N-[N-(4-Acetamidobutyryl)-L-α-aspartyl-L-α-glutamyl]-2-methyl-L-phenylalanyl]-3-methyl-L-valyl]-L-leucyl]-amino]propylboronic acid” was tested, and the IC50 was 230 nM.
Work on `Cc1ccccc1C[C@H](NC(=O)[C@H](NC(=O)[C@H](CS)NC(=O)CCC(=O)O)C(C)C)C(=O)N[C@H](C(=O)N[C@@H](CC(C)C)C(=O)NC(C=O)CC(F)(F)F)C(C)(C)C` (mixture of isomers) [D, 2(RS)-[[N-[N-[N-[N-[N-(3-Carboxypropionyl)-L-cysteinyl]-D-valyl]-2-methyl-L-phenylalanyl]-3-methyl-L-valyl]-L-leucyl]amino]-4,4,4-trifluorobutyraldehyde] yielded an IC50 of 140 nM.
For “2(RS)-[[N-[N-[N-[N2-(N-Acetyl-L-tyrosyl)-N6-nitro-L-arginyl]-2-methyl-L-phenylalanyl]-3-methyl-L-valyl]-L-leucyl]amino]-4,4,4-trifluorobutyraldehyde”, the IC50 was 44 nM.
For “2(RS)-[[N-[N-[N-[N-[N-(3-Carboxypropionyl)-L-α-aspartyl-L-α-glutamyl]-2-methyl-L-phenylalanyl]-3-methyl-L-valyl]-O-benzyl-L-tyrosyl]amino]-4,4,4-trifluorobutyraldehyde”, the IC50 was 200 nM.
Work on “2(RS)-[[N-[N-[N-[N-[N-(9-Hydroxy-9-fluorenyl)carbonyl]-L-seryl]-O-benzyl-D-seryl]-2-methyl-L-phenylalanyl]-3-methyl-L-valyl]-L-leucyl]-amino]-4,4,4-trifluorobutyraldehyde” yielded an IC50 of 20 nM.
In the case of “2(RS)-[[N-[N-[N-[N-[N-(3-Carboxypropionyl)-L-α-aspartyl-O-benzyl-L-α-glutamyl]-2-methyl-L-phenylalanyl]-3-methyl-L-valyl]-L-leucyl]amino]-4,4,4-trifluorobutyraldehyde”, the IC50 is reported as 110 nM.
